Data set [1] can be described thus: Cytotoxicity against human HepG2.2.15 cells assessed as reduction in cell viability incubated for 3 days followed by replacement of fresh medium containing compound and measured after 3 days by cell titer glo-based luminescence assay. Further details: species or system HepG2 2.2.15. (In general: Cellular ATP, detected with luciferase, serves as a proxy for viable cell number.)

A short description of data set [2]: Half life in human hepatocytes. It is filed as ADME, cell-based, Hepatocyte.
Data set [3] in a line: Solubility of the compound in DMSO. In kind it is physicochemical.
Data set [4] is described as follows: Half life in human at 200 mg. It is filed as ADME.
Data set [5] deals with Hepatitis B virus. In words: Antiviral activity against Hepatitis B virus infected in naive HBeAg positive patients assessed as log10 reduction in HBV DNA at 600 mg bid. In kind it is functional.
Data set [6] can be described thus: Lipophilicity, log P of the compound. In kind it is physicochemical. Particulars: octanol/water.
A short description of data set [7]: Ratio of drug concentration in liver to plasma of CD1 mouse. It is filed as ADME.
A short description of data set [8]: Oral bioavailability in CD1 mouse at 10 mg/kg. In kind it is ADME, organism-based. Conditions: in vivo.
The nature of data set [9]: Oral bioavailability in Mongrel dog at 3 mg/kg. It is filed as ADME, organism-based, Canis lupus familiaris. Conditions: in vivo.
Data set [10] can be described thus: Half life in CD1 mouse at 10 mg/kg, po or 2 mg/kg, iv. It is filed as ADME, organism-based. Conditions: in vivo.
Data set [11] can be described thus: Half life in Mongrel dog at 3 mg/kg, po or 1 mg/kg, iv. It is filed as ADME, organism-based, Canis lupus familiaris. Conditions: in vivo.
Data set [12] in a line: Clearance in CD1 mouse at 10 mg/kg, po or 2 mg/kg, iv. It is filed as ADME, organism-based. Conditions: in vivo.
Data set [13] in a line: Clearance in Mongrel dog at 3 mg/kg, po or 1 mg/kg, iv. It is filed as ADME, organism-based, Canis lupus familiaris. Conditions: in vivo.
Data set [14] is described as follows: Volume of distribution at steady state in CD1 mouse at 10 mg/kg, po or 2 mg/kg, iv. In kind it is ADME, organism-based. Conditions: in vivo, read-out: Vdss.
Data set [15] can be described thus: Volume of distribution at steady state in Mongrel dog at 3 mg/kg, po or 1 mg/kg, iv. In kind it is ADME, organism-based, Canis lupus familiaris. Conditions: in vivo, read-out: Vdss.
The nature of data set [16]: AUC in CD1 mouse plasma at 5 mg/kg. It is filed as ADME, organism-based. Conditions: in vivo.
The nature of data set [17]: AUC in CD1 mouse liver at 5 mg/kg. In kind it is ADME, organism-based. Conditions: in vivo.
A short description of data set [18]: Half life in CD1 mouse hepatocytes. It is filed as ADME, cell-based, Hepatocyte.
The nature of data set [19]: Half life in Sprague-Dawley rat hepatocytes. It is filed as ADME, cell-based, Hepatocyte.
Data set [20] can be described thus: Half life in Mongrel dog hepatocytes. It is filed as ADME, cell-based, Canis lupus familiaris, Hepatocyte.
The nature of data set [21]: Half life in Sprague-Dawley rat at 10 mg/kg, po or 2 mg/kg, iv. It is filed as ADME, organism-based. Particulars: in vivo.
Data set [22] in a line: Clearance in Sprague-Dawley rat at 10 mg/kg, po or 2 mg/kg, iv. In kind it is ADME, organism-based. Conditions: in vivo.
Data set [23] in a line: Volume of distribution at steady state in Sprague-Dawley rat at 10 mg/kg, po or 2 mg/kg, iv. It is filed as ADME, organism-based. Conditions: in vivo, read-out: Vdss.
Data set [24] deals with Hepatitis B virus. In words: Ratio of EC50 for antiviral activity against Hepatitis B virus infected in human HepG2.2.15 cells in presence of 40% normal human serum to EC50 for antiviral activity against Hepatitis B virus infected in human HepG2.2.15 cells in absence of 40% normal human serum. In kind it is functional.
Data set [25] is described as follows: Stability in human hepatocytes. It is filed as ADME, cell-based, Hepatocyte.

Data on 21 compounds can be found in ChEMBL document CHEMBL4433248, “SAR studies in the sulfonyl carboxamide class of HBV capsid assembly modulators” (Bioorg Med Chem Lett, 2019).

Each structure is given as a SMILES string. Bounds are passed on as bounds.

Take `CC1(O)COCCN(S(=O)(=O)c2cc(C(=O)Nc3ccc(F)c(Cl)c3)ccc2F)C1` (stereo not drawn): the CC50 (usually the concentration at which the toxic effect on the cells reaches its halfway point) at 72 h in data set [1] lay in the range of 7.1 to 15 µM. In addition, in data set [2], the half-life (usually the time in which the quantity being followed falls by half) was determined as 1.28 h.
On to `O=C(Nc1ccc(F)c(Cl)c1)c1ccc(F)c(S(=O)(=O)N2CCCCCCC2O)c1` (stereo not drawn), for which the CC50 at 72 h in data set [1] turned out to be 7 µM.
Still for that read-out and setting: to `O=C(Nc1ccc(F)c(Cl)c1)c1ccc(F)c(S(=O)(=O)N2CCOCC(F)C2)c1` (stereo not drawn) belongs 15 µM.
Turning to `CN1CCCN(S(=O)(=O)c2cc(C(=O)Nc3ccc(F)c(Cl)c3)ccc2F)CC1=O`, in data set [1], the CC50 at 72 h was above 100 µM. The solubility result in data set [3] was “Insoluble”.
As for `CN1CCN(S(=O)(=O)c2cc(C(=O)Nc3ccc(F)c(Cl)c3)ccc2F)CC(O)C1` (stereo not drawn), in data set [1], the CC50 at 72 h was found to be 31 µM.
For `CC1(O)CCCN(S(=O)(=O)c2cc(C(=O)Nc3ccc(F)c(Cl)c3)ccc2F)CC1` (stereo not drawn), the CC50 at 72 h in data set [1] was 11 µM.
For the compound `O=C(Nc1cc(F)c(F)c(F)c1)c1ccc(F)c(S(=O)(=O)N2CCC(O)CC2)c1`, the half-life in data set [4] was 15 to 19 h. The Activity in data set [5] came out at 1.7 log10IU/ml. The lipophilicity (logP) (in general, a log measure of how a compound divides between an organic and an aqueous phase) in data set [6] was found to be 3.2. Moreover, the Kp – broadly, tissue or fluid exposure divided by exposure in the circulation – in data set [7] was 6.
As to `CC1(O)CCCCN(S(=O)(=O)c2cc(C(=O)Nc3ccc(F)c(Cl)c3)ccc2F)C1` (stereo not drawn), the CC50 at 72 h in [1] is 10 µM.
With `O=C(Nc1ccc(F)c(Cl)c1)c1ccc(F)c(S(=O)(=O)N2CCCC(O)CC2)c1` (stereo not drawn), the CC50 at 72 h in [1] was found to be 29 µM.
`O=C(Nc1ccc(F)c(Cl)c1)c1ccc(F)c(S(=O)(=O)N2CCCCC(O)C2)c1` (stereo not drawn): the half-maximal cytotoxic concentration (CC50) at 72 h in data set [1] turned out to be 15 µM. Further, the half-life in data set [2] is 0.817 h.
On the same counts, the results for `O=C(Nc1ccc(F)c(Cl)c1)c1ccc(F)c(S(=O)(=O)N2CCCCC(O)CC2)c1` (stereo not drawn) are 24 µM and 0.0833 h.
Turning to `O=C(Nc1ccc(F)c(Cl)c1)c1ccc(F)c(S(=O)(=O)N2CCCCCC(O)C2)c1` (stereo not drawn), the CC50 at 72 h in data set [1] is 11 µM. In [2], this compound gave a half-life of 0.267 h.
With `O=C(Nc1ccc(F)c(Cl)c1)c1ccc(F)c(S(=O)(=O)N2C[C@H](O)CC[C@H](O)C2)c1`, the half-life is 8.58 h in data set [2]; 3.2 h in [10]; 4.6 h in data set [11]; 3.72 h in data set [18]; 0.467 h in data set [19]; 3.23 h in data set [20]. The bioavailability – broadly, dose-corrected exposure relative to a reference, in per cent – in [8] is 12%; in [9], 22%. Also, the clearance in data set [12] was 34 mL/min/kg; in [13], 6.4 mL/min/kg. Further, the Vd in data set [14] came to 4.1 L/kg; in [15], 1.3 L/kg. Further, the AUC (commonly the area under the concentration-time curve, a measure of exposure) in [16] was 0.73 µM·h; in data set [17], 55.4 µM·h. In addition, in data set [6] (read-out: logP), the lipophilicity (logP) was determined as 2.9. Also, the concentration ratio (Kp) in data set [7] came to 76.
Turning to `O=C(Nc1ccc(F)c(Cl)c1)c1ccc(F)c(S(=O)(=O)N2CCSCC(O)C2)c1` (stereo not drawn), in data set [1], the 50% cytotoxic concentration (CC50) at 72 h was 19 µM.
Same read-out and setting: next, `O=C(Nc1ccc(F)c(Cl)c1)c1ccc(F)c(S(=O)(=O)N2CCCCC(CO)C2)c1` (stereo not drawn): 3.1 µM.
The same measure, in the same setting: next, `O=C(Nc1ccc(F)c(Cl)c1)c1ccc(F)c(S(=O)(=O)N2CCOC[C@@H](O)C2)c1`: 14 µM; `CC(O)C1CCCCN(S(=O)(=O)c2cc(C(=O)Nc3ccc(F)c(Cl)c3)ccc2F)C1` (stereo not drawn): 2.6 µM.
As for `O=C(Nc1ccc(F)c(Cl)c1)c1ccc(F)c(S(=O)(=O)N2CCOCC(O)C2)c1` (racemic), the CC50 at 72 h in data set [1] is 7.1 to 15 µM. Besides, in data set [2], the half-life was determined as 4.63 h.
Turning to `O=C(Nc1ccc(F)c(Cl)c1)c1ccc(F)c(S(=O)(=O)N2CCOC[C@H](O)C2)c1`, in [1], the CC50 at 72 h turned out to be 19 µM. The bioavailability amounted to 78% in data set [8] and 53% in data set [9]. Also, the half-life is 2.6 h in data set [10]; 0.6 h in data set [21]; 4.6 h in data set [11]; 0.8 h in [18]; 0.467 h in data set [19]; 4.63 h in data set [20]. Besides, the clearance in data set [12] is 28 mL/min/kg; in data set [22], 88 mL/min/kg; in [13], 5.4 mL/min/kg. The Vd in data set [14] worked out at 4.1 L/kg; in data set [23], 3.3 L/kg; in [15] it was 1.3 L/kg. Besides, the “Ratio EC50” value in data set [24] is 6. In [6] (read-out: logP), the logP turned out to be 2.6. In addition, in data set [7], the Kp came out at 15. The Stability entry in data set [25] was “Stable”.
As to `O=C(Nc1ccc(F)c(Cl)c1)c1ccc(F)c(S(=O)(=O)N2CCCCC(F)(F)C2)c1`, the CC50 at 72 h in data set [1] was 11 µM.
As to `COC1COCCN(S(=O)(=O)c2cc(C(=O)Nc3ccc(F)c(Cl)c3)ccc2F)C1` (stereo not drawn), the CC50 at 72 h in data set [1] came out at 8.7 µM.
